Results published in ChEMBL document CHEMBL1201862, “PubChem BioAssay data set” (2004).
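Values below derive from 48-hour exposures of cells grown in 96-well plates, with endpoints linearly interpolated between the two concentrations bracketing the appropriate inhibition level. GI50: concentration for 50% inhibition of growth.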 Active and inactive are the calls of the source. Cut-off read from the data, not from the text of the source: active = GI50 up to about 1.1 µM and inactive = higher.

Legend:
Assay in all cases: NCI anticancer screen, dose series, 48 h
SK-OV-3 = tested on: SK-OV-3
PC-3 = tested on: PC-3
EKVX = tested on: EKVX
T47D = tested on: T47D
SK-MEL-2 = tested on: SK-MEL-2
MOLT-4 = tested on: MOLT-4
UACC-257 = tested on: UACC-257
SN12C = tested on: SN12C
ACHN = tested on: ACHN
CAKI-1 = tested on: CAKI-1
IGROV-1 = tested on: IGROV-1
OVCAR-8 = tested on: OVCAR-8
HT-29 = tested on: HT-29
Hs-578T = tested on: Hs-578T
HCC 2998 = tested on: HCC 2998
HOP-62 = tested on: HOP-62
HCT-15 = tested on: HCT-15
SF-539 = tested on: SF-539
A498 = tested on: A498

| SMILES | GI50 (SK-OV-3) | GI50 (PC-3) | GI50 (EKVX) | GI50 (T47D) | GI50 (SK-MEL-2) | GI50 (MOLT-4) | GI50 (UACC-257) | GI50 (SN12C) | GI50 (ACHN) | GI50 (CAKI-1) | GI50 (IGROV-1) | GI50 (OVCAR-8) | GI50 (HT-29) | GI50 (Hs-578T) | GI50 (HCC 2998) | GI50 (HOP-62) | GI50 (HCT-15) | GI50 (SF-539) | GI50 (A498) |
| --- | --- | --- | --- | --- | --- | --- | --- | --- | --- | --- | --- | --- | --- | --- | --- | --- | --- | --- | --- |
| Cc1ccc2c(O)cc(-c3cc4ccccc4s3)nc2n1 | 45.1 µM (inactive) | > 100 µM (inactive) | 27.4 µM (inactive) | 2.13 µM (inactive) | > 100 µM (inactive) | > 100 µM (inactive) | > 100 µM (inactive) | > 100 µM (inactive) | 47.6 µM (inactive) | 55 µM (inactive) | 6.65 µM (inactive) | 30.3 µM (inactive) | > 84.7 µM (inactive) | > 41.6 µM (inactive) | > 100 µM (inactive) | 31.7 µM (inactive) | > 70.3 µM |  |  |
| Cc1ccc(CCCC(=O)O)cc1C |  | > 100 µM (inactive) | > 100 µM (inactive) |  | > 100 µM (inactive) | > 100 µM (inactive) | > 100 µM (inactive) | > 100 µM (inactive) | > 100 µM (inactive) | > 100 µM (inactive) | > 100 µM (inactive) | > 100 µM (inactive) | > 100 µM (inactive) |  |  | > 100 µM (inactive) | > 100 µM |  |  |
| CCOC(=O)c1c(NCc2ccccc2)n(-c2ccccc2)c(=S)n(-c2ccccc2)c1=O |  |  |  | 66.4 µM (inactive) | > 100 µM (inactive) | 34.5 µM (inactive) | > 100 µM (inactive) | > 100 µM (inactive) | > 100 µM (inactive) |  | > 100 µM (inactive) | > 100 µM (inactive) | 40.4 µM (inactive) | 19.5 µM (inactive) | > 100 µM (inactive) |  | 63.1 µM |  |  |
| O=C1CSc2ccnc(=O)n21 | > 100 µM (inactive) | > 100 µM (inactive) | > 100 µM (inactive) |  |  | > 100 µM (inactive) | > 100 µM (inactive) | > 100 µM (inactive) | > 100 µM (inactive) | > 100 µM (inactive) | > 100 µM (inactive) | > 100 µM (inactive) |  | > 100 µM (inactive) | > 100 µM (inactive) | > 100 µM (inactive) |  | > 100 µM (inactive) | > 100 µM (inactive) |
| COc1cc(C2c3c(ccc4ccccc34)C(=O)C3CCC(=O)N32)cc(OC)c1O (stereo not given) | > 25 µM (inactive) | > 25 µM (inactive) | > 25 µM (inactive) | > 25 µM (inactive) | > 25 µM (inactive) | > 25 µM (inactive) | > 25 µM (inactive) | > 25 µM (inactive) | > 25 µM (inactive) |  | > 25 µM (inactive) | > 25 µM (inactive) | > 25 µM (inactive) |  |  | > 25 µM (inactive) | > 25 µM | > 25 µM (inactive) | > 25 µM (inactive) |
| O=C1NC(=O)C2C(=O)NC(=O)C1C2c1c(Cl)cccc1Cl (stereo not given) | > 100 µM (inactive) |  | > 100 µM (inactive) |  | > 100 µM (inactive) | > 100 µM (inactive) | > 67.9 µM (inactive) | > 83.6 µM (inactive) | > 100 µM (inactive) | > 100 µM (inactive) | > 100 µM (inactive) | > 66.2 µM (inactive) | > 92.5 µM (inactive) |  | > 60.5 µM (inactive) | > 100 µM (inactive) | > 100 µM | > 88.3 µM (inactive) | > 100 µM (inactive) |
| CCOC(=O)C1CN(C2CC2)CCC1=O (stereo not given) | > 100 µM (inactive) | > 100 µM (inactive) | > 100 µM (inactive) | > 100 µM (inactive) | > 100 µM (inactive) | > 100 µM (inactive) | > 100 µM (inactive) | > 100 µM (inactive) | > 100 µM (inactive) | > 100 µM (inactive) | > 100 µM (inactive) | > 100 µM (inactive) | > 100 µM (inactive) | > 100 µM (inactive) | > 100 µM (inactive) | > 100 µM (inactive) | > 100 µM |  |  |
| Nn1c(CCCCCCCCc2nnc(-c3c(O)ccc4ccccc34)n2N)nnc1-c1c(O)ccc2ccccc12 | > 100 µM (inactive) | > 100 µM (inactive) |  | > 100 µM (inactive) | > 100 µM (inactive) | > 100 µM (inactive) | > 100 µM (inactive) | > 100 µM (inactive) | > 100 µM (inactive) | > 100 µM (inactive) | > 100 µM (inactive) | > 100 µM (inactive) | > 100 µM (inactive) | > 100 µM (inactive) | > 100 µM (inactive) | > 100 µM (inactive) | > 100 µM | > 100 µM (inactive) |  |
| CC(/C=N\NC(=S)N1CCCCC1)=N/NC(=S)N1CCCCC1 | 1.04 µM (active) | 0.957 µM (active) | 1.88 µM (inactive) |  | 1.28 µM (inactive) | 0.514 µM (active) | 2.94 µM (inactive) | 1.35 µM (inactive) | 0.611 µM (active) | 1.33 µM (inactive) | 1.04 µM (active) | 0.551 µM (active) | 0.931 µM (active) | 1.41 µM (inactive) | 1.63 µM (inactive) | 0.991 µM (active) | 0.42 µM | 3.65 µM (inactive) | 1.35 µM (inactive) |
| COc1ccc2c(c1)CC[C@@H]1[C@@H]2CC[C@]2(C)C(=O)/C(=C/c3ccc(OC)c(OC)c3)C[C@@H]12 | > 100 µM (inactive) | > 100 µM (inactive) | > 100 µM (inactive) |  | > 100 µM (inactive) | > 100 µM (inactive) |  |  | > 100 µM (inactive) | > 100 µM (inactive) |  |  |  |  | > 100 µM (inactive) | > 100 µM (inactive) | > 100 µM | > 100 µM (inactive) | > 100 µM (inactive) |
| CCCCNc1nc(N)nc(Nc2ccc(Br)cc2)c1N=O |  | 67.5 µM (inactive) | > 100 µM (inactive) |  | > 100 µM (inactive) | 18.8 µM (inactive) | > 100 µM (inactive) | 58.7 µM (inactive) | 60.3 µM (inactive) |  | > 100 µM (inactive) | 70.5 µM (inactive) | 86.5 µM (inactive) | 27.5 µM (inactive) | 87.7 µM (inactive) | 37.2 µM (inactive) | 78 µM | 80.2 µM (inactive) |  |
| C/C(=N/NC(=S)Nc1cccc(Cl)c1)c1ccccn1 | 0.265 µM (active) | 0.0255 µM (active) | 0.0977 µM (active) |  | 1.2 µM (inactive) | < 0.0156 µM (active) | < 0.0208 µM (active) | 0.255 µM (active) | 0.194 µM (active) | 0.348 µM (active) | 0.0395 µM (active) | 0.0834 µM (active) | 0.0488 µM (active) | 0.429 µM (active) | 1.82 µM (inactive) | 0.453 µM (active) | 0.0588 µM | 0.593 µM (active) | 1.5 µM (inactive) |
| Cc1cccc(Nc2cn(CCOc3ccccc3)c(=O)n(CCOc3ccccc3)c2=O)c1 |  | > 100 µM (inactive) | 2.54 µM (inactive) |  |  | > 100 µM (inactive) | > 100 µM (inactive) | > 100 µM (inactive) | > 100 µM (inactive) | > 100 µM (inactive) | 23.3 µM (inactive) |  |  | > 100 µM (inactive) | > 100 µM (inactive) | > 100 µM (inactive) | > 100 µM |  | > 100 µM (inactive) |
| CCCC1(N2C(=O)c3ccc4c5c(ccc(c35)C2=O)N(C2(CCC)CCCCC2)C4=O)CCCCC1 | > 100 µM (inactive) | > 100 µM (inactive) |  | > 100 µM (inactive) | > 100 µM (inactive) | > 100 µM (inactive) |  | > 100 µM (inactive) | > 100 µM (inactive) | > 100 µM (inactive) |  | > 100 µM (inactive) | > 100 µM (inactive) |  | > 100 µM (inactive) | > 100 µM (inactive) | > 100 µM | > 100 µM (inactive) | > 100 µM (inactive) |
| COc1nc2c(c(=O)[nH]1)N=C(c1ccccc1)CC(c1ccccc1)N2 (stereo not given) | 58.5 µM (inactive) | 57.9 µM (inactive) | 48.9 µM (inactive) |  | 29.6 µM (inactive) | 31.3 µM (inactive) | > 100 µM (inactive) | 37 µM (inactive) | 30.3 µM (inactive) | 91 µM (inactive) | 61.4 µM (inactive) | 28.1 µM (inactive) | 44.7 µM (inactive) |  | 54.5 µM (inactive) | 95.1 µM (inactive) |  | 48.1 µM (inactive) | > 100 µM (inactive) |
| O=C1C(CN2CCCCC2)CCCC1CN1CCCCC1 (stereo not given) | > 100 µM (inactive) | 16.1 µM (inactive) | 16.2 µM (inactive) | 1.64 µM (inactive) |  |  | 17.2 µM (inactive) | 32.7 µM (inactive) | 18 µM (inactive) |  | > 56.2 µM (inactive) | 18.5 µM (inactive) | 20.1 µM (inactive) | 23.3 µM (inactive) | 51.3 µM (inactive) |  | 18.3 µM | 30.2 µM (inactive) |  |
| CCC1CNC(=O)CC1CC(=O)OC (stereo not given) | > 100 µM (inactive) |  | > 100 µM (inactive) |  | > 100 µM (inactive) | > 100 µM (inactive) |  | > 100 µM (inactive) | > 100 µM (inactive) | > 100 µM (inactive) | > 100 µM (inactive) |  |  |  | > 100 µM (inactive) | > 100 µM (inactive) | > 100 µM |  |  |
| Cc1ccc(S(=O)(=O)n2cnc(CC(NC(=O)C3CCC(=O)N3C(=O)OCc3ccccc3)C(=O)N3CCCC3C(=O)NN)c2)cc1 (stereo not given) |  | > 100 µM (inactive) | > 100 µM (inactive) |  | > 100 µM (inactive) | > 100 µM (inactive) | > 100 µM (inactive) | > 100 µM (inactive) | > 100 µM (inactive) |  | > 100 µM (inactive) | > 100 µM (inactive) | > 100 µM (inactive) | > 100 µM (inactive) | > 100 µM (inactive) | > 100 µM (inactive) | > 100 µM |  | > 100 µM (inactive) |
